Key:
Histone deacetylase 8 = target: T1, Histone deacetylase 8 (Homo sapiens, UniProt Q9BY41); experiment: Inhibition of human recombinant HDAC8 incubated for 60 mins by fluorimetry analysis
T1 sequence (Q9BY41 whole entry): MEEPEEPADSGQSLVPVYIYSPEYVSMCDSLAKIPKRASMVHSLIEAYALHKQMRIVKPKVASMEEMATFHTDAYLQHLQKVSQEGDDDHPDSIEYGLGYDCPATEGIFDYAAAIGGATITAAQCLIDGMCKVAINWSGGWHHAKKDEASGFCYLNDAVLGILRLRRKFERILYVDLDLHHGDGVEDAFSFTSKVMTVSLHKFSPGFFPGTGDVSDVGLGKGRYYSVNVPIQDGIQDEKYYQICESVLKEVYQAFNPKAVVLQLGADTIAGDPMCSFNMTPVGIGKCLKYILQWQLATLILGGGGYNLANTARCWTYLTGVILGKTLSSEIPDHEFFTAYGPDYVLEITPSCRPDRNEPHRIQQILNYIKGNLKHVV

Histone deacetylase 4 = Histone deacetylase 4 (Homo sapiens, UniProt P56524); experiment: Inhibition of human recombinant HDAC4 incubated for 30 mins by fluorimetry analysis
Histone deacetylase 1 = Histone deacetylase 1 (Homo sapiens, UniProt Q13547); experiment: Inhibition of human recombinant HDAC1 incubated for 15 mins by fluorimetry analysis
THP-1 = experiment: Cytotoxicity against human THP-1 cells assessed as reduction in cell viability by alamar blue staining based assay; format: functional
[1] = Metabolic stability in human liver microsomes assessed as disappearance of parent compound; format: ADME, Microsome; conditions: read-out: CLH
Histone deacetylase 7 = target: T2, Histone deacetylase 7 (Homo sapiens, UniProt Q8WUI4); experiment: Inhibition of human recombinant HDAC7 incubated for 30 mins by fluorimetry analysis
T2 sequence (Q8WUI4 whole entry): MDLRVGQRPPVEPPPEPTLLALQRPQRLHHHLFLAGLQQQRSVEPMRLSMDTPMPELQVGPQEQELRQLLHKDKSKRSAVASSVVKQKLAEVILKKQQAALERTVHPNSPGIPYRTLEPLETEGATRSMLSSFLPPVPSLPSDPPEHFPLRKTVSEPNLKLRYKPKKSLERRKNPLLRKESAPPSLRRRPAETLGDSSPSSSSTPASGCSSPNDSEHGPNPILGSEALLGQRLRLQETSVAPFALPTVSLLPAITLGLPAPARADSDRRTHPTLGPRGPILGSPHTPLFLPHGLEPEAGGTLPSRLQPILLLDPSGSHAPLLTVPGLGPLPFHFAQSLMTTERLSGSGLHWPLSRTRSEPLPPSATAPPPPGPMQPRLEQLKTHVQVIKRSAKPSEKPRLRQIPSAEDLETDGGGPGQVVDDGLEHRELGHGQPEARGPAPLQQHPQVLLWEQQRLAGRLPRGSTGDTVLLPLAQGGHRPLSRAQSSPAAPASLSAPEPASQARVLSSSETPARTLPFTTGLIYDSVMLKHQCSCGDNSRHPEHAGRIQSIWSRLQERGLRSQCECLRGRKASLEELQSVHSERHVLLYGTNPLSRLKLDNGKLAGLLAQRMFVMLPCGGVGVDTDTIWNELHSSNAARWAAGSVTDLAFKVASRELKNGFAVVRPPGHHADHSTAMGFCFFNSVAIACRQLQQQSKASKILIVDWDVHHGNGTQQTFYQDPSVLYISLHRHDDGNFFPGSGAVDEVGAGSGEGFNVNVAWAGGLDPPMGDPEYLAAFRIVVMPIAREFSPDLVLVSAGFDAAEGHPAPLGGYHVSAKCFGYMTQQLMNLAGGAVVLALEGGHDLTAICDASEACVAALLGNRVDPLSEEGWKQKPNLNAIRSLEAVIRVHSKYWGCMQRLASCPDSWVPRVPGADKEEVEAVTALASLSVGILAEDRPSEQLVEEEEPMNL

[2] = target: T3, Protein deacetylase HDAC6 (Homo sapiens, UniProt Q9UBN7); experiment: Inhibition of HDAC6 in human BEAS-2B cells assessed as deacetylation of acetylated histone-3 level incubated for 24 hrs by Western blot analysis; format: cell-based
T3 sequence (Q9UBN7 whole entry): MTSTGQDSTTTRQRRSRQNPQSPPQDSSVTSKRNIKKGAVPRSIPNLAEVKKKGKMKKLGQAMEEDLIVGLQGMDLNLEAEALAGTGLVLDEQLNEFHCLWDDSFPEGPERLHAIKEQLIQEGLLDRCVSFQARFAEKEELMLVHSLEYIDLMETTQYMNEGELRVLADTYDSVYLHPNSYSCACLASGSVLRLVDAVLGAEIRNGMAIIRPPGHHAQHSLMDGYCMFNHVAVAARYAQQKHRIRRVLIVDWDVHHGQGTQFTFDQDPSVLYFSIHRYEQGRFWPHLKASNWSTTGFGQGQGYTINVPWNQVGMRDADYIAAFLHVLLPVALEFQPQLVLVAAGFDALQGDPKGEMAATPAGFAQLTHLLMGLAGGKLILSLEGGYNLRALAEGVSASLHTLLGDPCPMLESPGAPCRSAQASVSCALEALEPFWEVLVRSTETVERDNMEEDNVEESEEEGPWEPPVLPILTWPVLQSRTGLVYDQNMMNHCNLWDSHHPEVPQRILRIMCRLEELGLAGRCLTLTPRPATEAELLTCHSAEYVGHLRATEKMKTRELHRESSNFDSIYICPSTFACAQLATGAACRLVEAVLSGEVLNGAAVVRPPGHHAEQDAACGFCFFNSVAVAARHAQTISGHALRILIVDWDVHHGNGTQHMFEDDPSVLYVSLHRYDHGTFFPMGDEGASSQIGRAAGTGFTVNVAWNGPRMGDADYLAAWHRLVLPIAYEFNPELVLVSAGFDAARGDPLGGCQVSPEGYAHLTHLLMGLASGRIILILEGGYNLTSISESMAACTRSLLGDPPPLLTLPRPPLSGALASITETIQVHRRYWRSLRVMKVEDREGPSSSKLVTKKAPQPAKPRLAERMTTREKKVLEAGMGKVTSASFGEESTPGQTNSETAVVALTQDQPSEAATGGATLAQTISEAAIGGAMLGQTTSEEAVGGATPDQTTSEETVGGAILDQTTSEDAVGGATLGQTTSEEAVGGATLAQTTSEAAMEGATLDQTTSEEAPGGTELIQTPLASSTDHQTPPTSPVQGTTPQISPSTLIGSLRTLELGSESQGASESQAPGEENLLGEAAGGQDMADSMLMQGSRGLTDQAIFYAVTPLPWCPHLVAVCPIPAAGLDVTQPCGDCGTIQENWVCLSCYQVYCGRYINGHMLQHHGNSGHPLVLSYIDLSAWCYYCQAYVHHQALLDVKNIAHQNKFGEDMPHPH

[3] = target: T3, Protein deacetylase HDAC6; experiment: Inhibition of HDAC6 in human BEAS-2B cells assessed as deacetylation of acetylated alpha-tubulin level incubated for 24 hrs by Western blot analysis; format: cell-based
[4] = Metabolic stability in rat hepatocytes assessed as intrinsic clearance at 1 uM measured per 10^6 cells incubated at 2 to 60 mins by LC-MS/MS analysis; format: ADME, cell-based, Hepatocyte; conditions: time 2-60 min, read-out: CLH
[5] = Metabolic stability in mouse hepatocytes assessed as intrinsic clearance at 1 uM measured per 10^6 cells incubated at 2 to 60 mins by LC-MS/MS analysis; format: ADME, cell-based, Hepatocyte; conditions: time 2-60 min, read-out: CLH

Sequence of Histone deacetylase 4 (P56524 whole entry): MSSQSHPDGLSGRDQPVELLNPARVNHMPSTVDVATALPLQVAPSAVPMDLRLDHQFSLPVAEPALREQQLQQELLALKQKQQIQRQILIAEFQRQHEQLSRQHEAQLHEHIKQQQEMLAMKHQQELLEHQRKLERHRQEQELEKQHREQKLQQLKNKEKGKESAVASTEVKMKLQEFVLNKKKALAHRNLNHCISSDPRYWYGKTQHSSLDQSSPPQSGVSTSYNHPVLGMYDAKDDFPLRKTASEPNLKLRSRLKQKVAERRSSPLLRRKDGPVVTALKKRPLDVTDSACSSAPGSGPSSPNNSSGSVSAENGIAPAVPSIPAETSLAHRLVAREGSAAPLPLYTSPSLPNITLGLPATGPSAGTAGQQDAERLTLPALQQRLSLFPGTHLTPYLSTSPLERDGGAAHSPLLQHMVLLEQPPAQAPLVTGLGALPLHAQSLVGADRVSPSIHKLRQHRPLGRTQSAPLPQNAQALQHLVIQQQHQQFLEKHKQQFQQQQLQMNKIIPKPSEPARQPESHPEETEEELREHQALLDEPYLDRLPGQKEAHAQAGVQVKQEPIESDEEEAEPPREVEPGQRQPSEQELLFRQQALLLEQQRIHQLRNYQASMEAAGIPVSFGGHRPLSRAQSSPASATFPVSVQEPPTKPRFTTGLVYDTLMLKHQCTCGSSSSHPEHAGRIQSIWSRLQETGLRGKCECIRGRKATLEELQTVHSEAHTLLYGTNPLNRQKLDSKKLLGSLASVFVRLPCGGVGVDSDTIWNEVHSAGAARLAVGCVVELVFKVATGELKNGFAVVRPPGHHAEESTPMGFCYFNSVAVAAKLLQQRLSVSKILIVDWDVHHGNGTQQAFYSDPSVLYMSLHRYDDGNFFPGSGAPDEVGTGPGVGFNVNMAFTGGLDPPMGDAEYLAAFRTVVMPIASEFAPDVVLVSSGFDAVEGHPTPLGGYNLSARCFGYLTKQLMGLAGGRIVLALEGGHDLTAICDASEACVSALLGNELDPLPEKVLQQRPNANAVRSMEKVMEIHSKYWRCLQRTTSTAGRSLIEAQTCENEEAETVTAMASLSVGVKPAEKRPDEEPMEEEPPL
Sequence of Histone deacetylase 1 (Q13547 whole entry): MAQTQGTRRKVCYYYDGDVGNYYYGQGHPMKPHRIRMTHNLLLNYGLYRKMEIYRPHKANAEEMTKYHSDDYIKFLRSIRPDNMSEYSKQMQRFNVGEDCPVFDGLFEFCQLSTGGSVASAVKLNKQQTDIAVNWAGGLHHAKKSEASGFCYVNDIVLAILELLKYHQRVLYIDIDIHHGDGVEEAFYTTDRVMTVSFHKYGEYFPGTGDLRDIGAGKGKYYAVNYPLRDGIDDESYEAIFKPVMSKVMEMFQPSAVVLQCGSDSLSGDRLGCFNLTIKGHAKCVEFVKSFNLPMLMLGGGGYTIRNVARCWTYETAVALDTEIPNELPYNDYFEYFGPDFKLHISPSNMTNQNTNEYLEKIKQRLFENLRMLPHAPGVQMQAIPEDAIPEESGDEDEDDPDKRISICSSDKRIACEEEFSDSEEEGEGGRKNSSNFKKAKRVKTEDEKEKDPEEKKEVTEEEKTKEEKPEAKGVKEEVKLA

Row | SMILES | IC50 (Histone deacetylase 8) [µM] | IC50 (Histone deacetylase 4) [µM] | IC50 (Histone deacetylase 1) [µM] | IC50 (THP-1; read-out: IC50) [µM] | IC50 (THP-1; read-out: pIC50 (converted)) [µM] | microsomal CLint [1] [µL/min/mg] | IC50 (Histone deacetylase 7) [µM] | IC50 [2] [µM] | EC50 [3] [µM] | hepatocyte CLint at 1 µM [4] [µL/min/1e6 cells] | hepatocyte CLint at 1 µM [5] [µL/min/1e6 cells]
1 | CS(=O)(=O)NCC(Nc1ncc(-c2nnc(C(F)F)o2)cn1)c1ccc(OC(F)(F)F)cc1 (configuration not stated) | > 100 | 14 | > 100 | 126 | 126 | < 3 | 30 | > 10 | 0.0631 | – | –
2 | O=C(NO)c1cnc(NC2(c3ccccc3)CCC(F)(F)CC2)nc1 | 16 | 12 | 17 | 94 | 100 | < 3 | 6.5 | > 10 | 0.0794 | 51 | 130
3 | FC(F)c1nnc(-c2ccc(Cn3nnc(-c4ccccn4)n3)nc2)o1 | > 100 | > 100 | > 100 | – | > 251 | < 3 | > 100 | > 10 | 0.251 | < 1 | < 1
4 | COc1ccccc1-c1nnn(Cc2ccc(-c3nnc(C(F)F)o3)cn2)n1 | > 100 | > 100 | > 100 | – | – | < 3 | > 100 | > 10 | 0.316 | – | –

Source: ChEMBL document CHEMBL5370608, “Selective and Bioavailable HDAC6 2-(Difluoromethyl)-1,3,4-oxadiazole Substrate Inhibitors and Modeling of Their Bioactivation Mechanism” (J Med Chem, 2023)
